Data: patent US9499614B2, “Methods for modulating protein glycosylation profiles of recombinant protein therapeutics using monosaccharides and oligosaccharides” (AbbVie, Inc., priority 2013, dated 2016)

Tests used:
Type in all cases: cell-based, Chinese Hamster
[1] = test system: Cell Line 1; test: N-glycan oligosaccharide profiling, Cell Line 1 (Antibody 1) shake flasks (Example 2)
Method: Two recombinant Chinese Hamster Ovary (CHO) cell lines expressing two different recombinant glycoproteins were evaluated in two different cultures vessels (shaker flasks and 3 L laboratory scale bioreactors). Cell Line 1 expressed Antibody 1, Cell Line 2 expressed Dual Variable Domain Immunoglobulin 1 (DVD 1) and Cell Line 3 expressed Antibody 2. Antibodies 1 and 2 are IgG1 proteins, and DVD 1 is an immunoglobulin with two variable domains as documented previously (Wu C. et al., (2007) Nat. Biotechnol 25(11):1290-1297). All cell lines were of CHO DUX-B11 origin based on a dhfr (dihydrofolate reductase) expression system. All cell lines were cultured in the same chemically defined basal media. Cell lines 1 and 2 were fed with the same chemically-defined feed media, but Cell Line 1 was fed media that was formulated at a 50% higher concentration. Each of the respective media were supplemented with either sucrose or tagatose to evaluate their potential impact on the resulting N-glycan oligosaccharide profile. All sugars were purchased from Sigma-Aldrich (St. Louis, Mo.). In preparation of the cultures, the cell lines were serially expanded through separate seed train inoculums to generate enough cells for inoculation.
(§1) Purified antibodies subjected to additional analytical characterization were purified using MabSelect™ Protein A (GE Healthcare, Piscataway, N.J.) using a low pH, step elution gradient, followed by buffer exchange using Corning Lifesciences (Tewksbury, Mass.) Spin Concentrator X UF columns according to the manufacturers' recommended procedures.
(§2) Approximately 200 μg of Protein A purified samples from Cell Lines 1 and 2 were treated with N-glycanase at 37° C. overnight to remove the N-glycans from the protein. The protein was precipitated and the supernatant was taken for subsequent chemical derivatization of the reducing end of the released glycans with 2-aminobenzamide (2-AB) dye. Following the derivatization step, the excess label was removed using clean up cartridges and the samples were analyzed using normal phase HPLC with fluorescent detection. Mobile phase A was 100% acetonitrile and mobile phase B was 50 mM ammonium formate pH 4.4. The glycans were eluted from a polyamide column (Prozyme, Hayward, Calif.) using a shallow gradient. The labeled glycans were detected using a fluorescence detector with an excitation wavelength of 330 nm and an emission wavelength of 420 nm.
Experimental results are expressed as mean±SD for those results generated from at least three independent cultures. Experimental results are expressed as the measured value for those results generated from less than three independent cultures. Results were evaluated for statistical significance through 2-sided t-tests, with a requirement of p<0.05 relative to the unsupplemented control conditions.
Cell Line 1 was cultured in shake flasks in fedbatch mode after an abbreviated seed train. Sucrose and tagatose were supplemented into chemically-defined basal and feed media at concentrations of 1, 10, 30, 50, and 70 mM, and compared to unsupplemented control conditions. The viable cell density (VCD), viability, and harvest titer results are shown in FIGS. 13A-13C for the sucrose supplemented cultures and FIGS. 14A-14C for the tagatose supplemented cultures.

[2] = test system: Cell Line 1; test: Shake flask fedbatch culture of Cell Line 1, cell culture performance (Example 1)
Method: Two recombinant Chinese Hamster Ovary (CHO) cell lines expressing two different humanized monoclonal antibodies (Antibody 1, Antibody 2) were evaluated in two different culture vessels (shaker flasks and laboratory scale bioreactors). Both cell lines were of CHO DUX-B11 origin based on a dhfr (dihydrofolate reductase) expression system. Both cell lines were cultured in the same chemically defined basal media (CDBM), with Cell Line 1 also utilizing a chemically-defined feed media (CDFM). Each of the respective media were supplemented with selected monosaccharides and oligosaccharides to evaluate their potential impact on the resulting N-glycan oligosaccharide profile. In preparing the cultures, the cell lines were serially expanded through separate seed train inoculums to generate enough cells for inoculation.
Viable cell density (VCD) and cell viability values were measured through trypan blue exclusion via Cedex automated cell counters (Roche Applied Science, Indianapolis, Ind.), glucose and lactate values were measured with a ABL-805 (Radiometer Medical, Denmark) blood gas analyzer. Offline pH, dissolved oxygen (DO), and pCO2 measurements were performed with a ABL-805 (Radiometer Medical, Denmark) blood gas analyzer. Osmolality was measured on a Multi-Osmette 2430 osmometer (Precision Systems, Natick, Mass.).
Antibody titers were measured from crude cell culture harvests on a Poros A™ (Life Technologies, Carlsbad, Calif.) affinity column using an Agilent (Santa Clara, Calif.) 1200 Series HPLC, or equivalent, operating with a low pH, step elution gradient with detection at 280 nm. Absolute concentrations were assigned with respect to reference standard calibration curves.
Cell Line 1 was cultured in shake flasks in fedbatch mode after an abbreviated seed train. Sucrose and tagatose were supplemented into chemically-defined basal and feed media at concentrations of 30, 50, and 70 mM, and compared to an unsupplemented control condition. The viable cell density (VCD), viability, and harvest titer results are shown in FIGS. 3A-3C and FIGS. 5A-5C for the sucrose, and tagatose conditions, respectively. Both sugars facilitated a slight decrease in VCD, with the higher concentrations also supporting the lowest peak VCD. […] As such, the upper threshold of sucrose or tagatose concentration should not be exceeded.

[3] = test system: Cell Line 1; test: N-glycan oligosaccharide profiling, Cell Line 1 in 3 L laboratory-scale bioreactors; details: 50 mM supplement vs control
Method: as §1, §2
3 L scale-down model bioreactors were utilized to verify the impact of select sugars on the resulting protein glycosylation profiles. The concentration of the sucrose and tagatose was chosen to minimize any potential adverse impact on cell growth and productivity, but still facilitate a measurable modulation of the glycosylation profile. Cell culture process performance indicators were monitored and measured throughout the respective cultures. Viable cell density, cell viability, lactate, pCO2, osmolality, harvest titer, and harvest N-glycan oligosaccharide data were measured and reported.
3 L scale laboratory bioreactors were utilized to verify the impact of sucrose, tagatose, or fructose on protein glycosylation profiles. Concentrations of the sugars were chosen to minimize any potential adverse impacts on cell growth and productivity, but still facilitate a measurable impact on the glycoform profile. Cell culture process performance indicators were monitored and measured throughout the study. Viable cell density, cell viability, lactate, pCO2, osmolality, harvest titer, and harvest N-glycan oligosaccharide data was measured and reported.

Row | Compound | cumulative increase in overall mannosylated N-glycans ([1]; 70 mM supplement vs control) [%] | drop in NGA2F species ([1]; 70 mM supplement vs control) [%] | increase in Man 5 species ([1]; 70 mM supplement vs control) [%] | increase in Man 6 species ([1]; 70 mM supplement vs control) [%] | increase in Man 7 species ([1]; 70 mM supplement vs control) [%] | increase in Man 8 species ([1]; 70 mM supplement vs control) [%] | increase in NGA2F-GlcNAc species ([1]; 70 mM supplement vs control) [%] | overall decrease in the fucosylation level ([1]; 70 mM supplement vs control) [%] | Harvest titer (adverse impact) ([2]; 30 mM supplement vs control) | Harvest titer (adverse impact) ([2]; 50 mM supplement vs control) | Harvest titer (adverse impact) ([2]; 70 mM supplement vs control) | Man 5 increase [3] [%] | Man 6 increase [3] [%] | Man 7 increase [3] [%] | decrease in NA1F [3] [%] | decrease in NGA2F species [3] [%] | increase in NA1F-GlcNAc [3] [%] | increase in NGA2F-GlcNAc [3] [%] | increase in overall mannosylation [3] [%] | overall decrease in fucosylation [3] [%] | other results
1 | OC[C@H]1O[C@@](CO)(O[C@H]2O[C@H](CO)[C@@H](O)[C@H](O)[C@H]2O)[C@@H](O)[C@@H]1O [sucrose] | 37 | 44 | 19 | 10 | 6 | 2 | 8 | 37 | did not adversely impact titer | did not adversely impact titer | reduce the harvest titer significantly | 16 | 5 | 3 | 3 | 29 | 1 | 7 | 24 | 24 | decrease in NA1F species ([1]; 70 mM supplement vs control): 1%; overall N-glycan core fucosylation ([1]; 10, 30, 50 and 70 mM): decreased in a statistically significant manner; cell viability ([2]; 70 mM supplement vs control): decrease in cell viability that was larger, and earlier in the culture
2 | O=C(CO)[C@@H](O)[C@@H](O)[C@H](O)CO [tagatose] | 15 | 23 | 8 | 4 | 2 | 1 | 8 | 15 | did not adversely impact harvest titer | did | did | 7 | 2 | 1 | 3 | 15 | 1 | 6 | 10 | 11 | N-glycan profiles compared to the control culture ([1]; 1, 10 and 30 mM): not practically different compared to the control culture
